Where two headings read alike, the source gives them in different places.
Target: CFTR (Homo sapiens, UniProt P13569)
Experiment: Membrane Potential Dye, Enteroid Assay B
Format: cell-based
Summary of the method: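 Human intestinal enteroid cells exposed to compound 18-24 h at 37 °C, then loaded with methyl oxonol membrane-potential dye plus CaCC blockers. Chloride transport triggered in chloride-free buffer with 10 μM forskolin, 100 μM IBMX, 300 nM Compound III; fluorescence read 15 min, expressed as % of triple-corrector/potentiator combination control.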

[1] = Table 10, read-out: Ent. B EC50

Chain of CFTR (P13569 with tags, fused parts or gaps DEL508-508): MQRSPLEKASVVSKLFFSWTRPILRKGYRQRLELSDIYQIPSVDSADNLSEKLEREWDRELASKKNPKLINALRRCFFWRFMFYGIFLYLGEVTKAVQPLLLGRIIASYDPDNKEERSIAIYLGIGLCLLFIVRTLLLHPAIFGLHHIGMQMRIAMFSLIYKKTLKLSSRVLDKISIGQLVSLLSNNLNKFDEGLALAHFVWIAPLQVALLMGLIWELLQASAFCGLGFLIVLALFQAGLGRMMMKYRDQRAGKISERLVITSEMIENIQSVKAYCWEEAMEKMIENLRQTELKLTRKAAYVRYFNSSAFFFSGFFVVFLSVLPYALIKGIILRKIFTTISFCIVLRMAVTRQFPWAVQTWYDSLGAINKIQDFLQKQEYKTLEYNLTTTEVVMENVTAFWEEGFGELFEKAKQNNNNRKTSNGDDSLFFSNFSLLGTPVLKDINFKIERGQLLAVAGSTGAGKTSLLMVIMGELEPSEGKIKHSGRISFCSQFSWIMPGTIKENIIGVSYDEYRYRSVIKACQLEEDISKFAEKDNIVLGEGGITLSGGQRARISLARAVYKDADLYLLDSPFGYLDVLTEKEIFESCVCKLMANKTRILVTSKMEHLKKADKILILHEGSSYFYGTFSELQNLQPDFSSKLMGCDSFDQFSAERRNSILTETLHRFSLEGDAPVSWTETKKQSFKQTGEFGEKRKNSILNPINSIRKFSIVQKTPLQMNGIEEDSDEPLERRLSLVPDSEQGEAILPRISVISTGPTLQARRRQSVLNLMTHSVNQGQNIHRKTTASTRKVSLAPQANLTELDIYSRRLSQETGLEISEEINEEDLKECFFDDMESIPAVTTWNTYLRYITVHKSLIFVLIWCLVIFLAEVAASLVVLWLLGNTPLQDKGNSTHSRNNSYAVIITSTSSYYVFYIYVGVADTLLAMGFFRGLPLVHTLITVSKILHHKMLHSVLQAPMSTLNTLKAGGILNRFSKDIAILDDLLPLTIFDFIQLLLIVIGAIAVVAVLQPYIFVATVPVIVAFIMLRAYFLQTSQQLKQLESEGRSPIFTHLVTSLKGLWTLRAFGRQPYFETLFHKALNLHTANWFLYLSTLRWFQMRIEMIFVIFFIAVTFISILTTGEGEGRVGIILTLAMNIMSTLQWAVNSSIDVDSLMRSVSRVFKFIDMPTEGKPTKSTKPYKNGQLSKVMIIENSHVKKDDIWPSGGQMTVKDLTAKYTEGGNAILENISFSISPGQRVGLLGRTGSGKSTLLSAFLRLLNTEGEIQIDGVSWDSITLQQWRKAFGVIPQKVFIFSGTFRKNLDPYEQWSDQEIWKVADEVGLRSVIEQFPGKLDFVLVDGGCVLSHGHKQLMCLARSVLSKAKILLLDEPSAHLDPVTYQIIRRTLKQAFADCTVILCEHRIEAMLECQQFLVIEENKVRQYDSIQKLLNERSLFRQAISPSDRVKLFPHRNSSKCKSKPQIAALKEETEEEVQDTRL

Structure (SMILES)	Ent. B Max Activity (%) (Table 10)	EC50 [1] [µM]	Ent. B Max Activity (%) (Table 9)	EC50 (Table 9, read-out: Ent. B EC50) [µM]	other results
[H][C@]1(N2C(=O)c3cccc(c3)S(=O)(=O)Nc3nc(cc(-c4c(C)cccc4C)n3)OC[C@H]2CC(C)(C)C)C[C@@]2(C[C@H](C(=O)N(C)C)C2)C1 (single isomer, unassigned) [Compound 115]	+++ (+++ is >60%)	< 1			
Cc1cccc(C)c1-c1cc2nc(n1)NS(=O)(=O)c1cccc(c1)C(=O)N(c1cnn(C)c1)[C@H](CC(C)C)CO2 [Compound 97, (11R)-6-(2,6-Dimethylphenyl)-11-isobutyl-12-(1-methylpyrazol-4-yl)-2,2-dioxo-9-oxa-2λ^6-thia-3,5,12,19-tetrazatricyclo[12.3.1.14,8]nonadeca-1(18),4(19),5,7,14,16-hexaen-13-one]	+++ (+++ is >60%)	< 1			
Cc1cccc(C)c1-c1cc2nc(n1)NS(=O)(=O)c1cccc(c1)C(=O)N(C1CC3(CC(=O)C3)C1)[C@H](CC(C)(C)C)CO2 [Compound 352]	+++ (+++ is >60%)	< 1			
Cc1cccc(C)c1-c1cc2nc(n1)NS(=O)(=O)c1cccc(c1)C(=O)N(C1CC3(COC(=O)N3)C1)[C@H](CC(C)C)CO2 (some centres unmarked) [Compound 255]	++ (++ is 30-60%)	< 1			
Cc1cccc(C)c1-c1cc2nc(n1)NS(=O)(=O)c1cccc(c1)C(=O)N(C1CC3(C1)CN(C(=O)OC(C)C)C3)[C@H](CC1(C(F)(F)F)CC1)CO2 [Compound 133, Propan-2-yl 6-[(11R)-6-(2,6-dimethylphenyl)-2,2,13-trioxo-11-{[1-(trifluoromethyl)cyclopropyl]methyl}-9-oxa-2λ^6-thia-3,5,12,19-tetraazatricyclo[12.3.1.14,8]nonadeca-1(17),4,6,8(19),14(18),15-hexaen-12-yl]-2-azaspiro[3.3]heptane-2-carboxylate]			+++ (+++ is >60%)	< 1	
Cc1cccc(C)c1-c1cc2nc(n1)NS(=O)(=O)c1cccc(c1)C(=O)N(C1CC3(CC(O)C3)C1)[C@H](CC(C)(C)C)CO2 (single isomer, unassigned) [Compound 122]	+++ (+++ is >60%)	< 1			
Cc1cccc(C)c1-c1cc2nc(n1)NS(=O)(=O)c1cccc(c1)C(=O)N(c1cnn(CC(C)C)c1)[C@H](CC(C)(C)C)CO2 [Compound 229]	+++ (+++ is >60%)	< 1			
CNC1CC2(C1)CC(N1C(=O)c3cccc(c3)S(=O)(=O)Nc3nc(cc(-c4c(C)cccc4C)n3)OC[C@H]1CC(C)C)C2 (stereo in doubt) [Compound 282]			+++ (+++ is >60%)	< 1	
COC1CCN(C(=O)C2CC(N3C(=O)c4cccc(c4)S(=O)(=O)Nc4nc(cc(-c5c(C)cccc5C)n4)OC[C@H]3CC(C)C)C2)CC1 (some centres unmarked) [Compound 308]					Ent. B Max Activity (%): +++ (+++ is >60%); EC50 (read-out: Ent. B EC50): < 1 µM
Cc1cccc(C)c1-c1cc2nc(n1)NS(=O)(=O)c1cccc(c1)C(=O)N(C1CC(N3CCCC3=O)C1)[C@H](CC(C)C)CO2 (some centres unmarked) [Compound 369]	++ (++ is 30-60%)	< 1			
Cc1cccc(C)c1-c1cc2nc(n1)NS(=O)(=O)c1cccc(c1)C(=O)N(C1CC3(COC(=O)N3)C1)[C@H](CC(C)(C)C)CO2 (single isomer, unassigned) [Compound 175]	++ (++ is 30-60%)	< 1			
Cc1cccc(C)c1-c1cc2nc(n1)NS(=O)(=O)c1cccc(c1)C(=O)N([C@H]1C[C@]3(C[C@@H](N)C3)C1)[C@H](CC1(C(F)(F)F)CC1)CO2 (stereo partly drawn) [Compound 80, (R)-6-((2S,4s,6S)-6-Aminospiro[3.3]heptan-2-yl)-1^6-(2,6-dimethylphenyl)-7-((1-(trifluoromethyl)cyclopropyl)methyl)-9-oxa-3-thia-2,6-diaza-1(2,4)-pyrimidina-4(1,3)-benzenacyclononaphan-5-one 3,3-dioxide]			+++ (+++ is >60%)	< 1	
CCC(O)(CC)[C@H]1CC2(C[C@H](N3C(=O)c4cccc(c4)S(=O)(=O)Nc4nc(cc(-c5c(C)cccc5C)n4)OC[C@H]3CC(C)(C)C)C2)C1 (some centres unmarked) [Compound 408]	+++ (+++ is >60%)	< 1			
Cc1cccc(C)c1-c1cc2nc(n1)NS(=O)(=O)c1cccc(c1)C(=O)N([C@H]1C[C@@H](NC34CC(CO)(C3)C4)C1)[C@H](CC(C)C)CO2 (stereo in doubt) [Compound 358]	+++ (+++ is >60%)	< 1			
[H][C@]1(N2C(=O)c3cccc(c3)S(=O)(=O)Nc3nc(cc(-c4c(C)cccc4C)n3)OC[C@H]2CC(C)C)C[C@@]2(C[C@H](NC(=O)CC)C2)C1 (some centres unmarked) [Compound 250]		< 1			
COC(=O)N(C)[C@H]1C[C@]2(C1)C[C@H](N1C(=O)c3cccc(c3)S(=O)(=O)Nc3nc(cc(-c4c(C)cccc4C)n3)OC[C@H]1CC1(C(F)(F)F)CC1)C2 (stereo in doubt) [Compound 260]			+++ (+++ is >60%)	< 1	
COCCCN1CCC2(CC1)CC(N1C(=O)c3cccc(c3)S(=O)(=O)Nc3nc(cc(-c4c(C)cccc4C)n3)OC[C@H]1CC(C)(C)C(F)(F)F)C2 [Compound 188, (11R)-6-(2,6-dimethylphenyl)-12-[7-(3-methoxypropyl)-7-azaspiro[3.5]nonan-2-yl]-11-(3,3,3-trifluoro-2,2-dimethylpropyl)-9-oxa-2λ^6-thia-3,5,12,19-tetraazatricyclo[12.3.1.14,8]nonadeca-1(17),4(19),5,7,14(18),15-hexaene-2,2,13-trione]			+++ (+++ is >60%)	< 1	
Cc1cccc(C)c1-c1cc2nc(n1)NS(=O)(=O)c1cccc(c1)C(=O)N(C1CC(N(C)C)C1)[C@H](CC(C)(C)C)CO2 (some centres unmarked) [Compound 254]	++ (++ is 30-60%)	< 1			
[H][C@]1(N2C(=O)c3cccc(c3)S(=O)(=O)Nc3nc(cc(-c4c(C)cccc4C)n3)OC[C@H]2CC(C)C)C[C@@]2(C[C@H](NC(=O)OC(C)C)C2)C1 (single isomer, unassigned) [Compound 124]	+++ (+++ is >60%)	< 1			
Cc1cccc(C)c1-c1cc2nc(n1)NS(=O)(=O)c1cccc(c1)C(=O)N(C1CC(NC(=O)OC(C)C)C1)[C@H](CC(C)(C)C(F)(F)F)CO2 (single isomer, unassigned) [Compound 195]	++ (++ is 30-60%)	< 1			
COC(=O)N1CCC(n2cc(N3C(=O)c4cccc(c4)S(=O)(=O)Nc4nc(cc(-c5c(C)cccc5C)n4)OC[C@H]3CC(C)(C)C)cn2)CC1 [Compound 223]	+ (+ is <300%)	< 1			
Cc1cccc(C)c1-c1cc2nc(n1)NS(=O)(=O)c1cccc(c1)C(=O)N(C1CC3(C1)CN(C(C)C)C3)[C@H](CC(C)C)CO2 [Compound 103, (11R)-6-(2,6-Dimethylphenyl)-11-isobutyl-12-(2-isopropyl-2-azaspiro[3.3]heptan-6-yl)-2,2-dioxo-9-oxa-2λ^6-thia-3,5,12,19-tetrazatricyclo[12.3.1.14,8]nonadeca-1(18),4(19),5,7,14,16-hexaen-13-one]					Ent. B Max Activity (%): +++ (+++ is >60%); EC50 (read-out: Ent. B EC50): < 1 µM
COCCN1CCC2(CC1)CC(N1C(=O)c3cccc(n3)S(=O)(=O)Nc3cc(cc(-c4c(C)cccc4C)n3)OC[C@H]1CC(C)C)C2 [Compound 422]			+++ (+++ is >60%)		
Cc1cccc(C)c1-c1cc2nc(n1)NS(=O)(=O)c1cccc(c1)C(=O)N([C@H]1C[C@@H](N)C1)[C@H](CC1(C(F)(F)F)CC1)CO2 (single isomer, unassigned) [Compound 56]			+++ (+++ is >60%)	< 1	
Cc1cccc(C)c1-c1cc2nc(n1)NS(=O)(=O)c1cccc(c1)C(=O)N(C1CC(N(C)[C@H](C)C(F)(F)F)C1)[C@H](CC(C)C)CO2 (stereo partly drawn) [Compound 68, (11R)-6-(2,6-Dimethylphenyl)-11-isobutyl-12-[3-[methyl-[(1R)-2,2,2-trifluoro-1-methyl-ethyl]amino]cyclobutyl]-2,2-dioxo-9-oxa-2λ^6-thia-3,5,12,19-tetrazatricyclo[12.3.1.14,8]nonadeca-1(18),4(19),5,7,14,16-hexaen-13-one]			++ (++ is 30-60%)	< 1	
CCOC(=O)NC1CC2(C1)CC(N1C(=O)c3cccc(c3)S(=O)(=O)Nc3nc(cc(-c4c(C)cccc4C)n3)OC[C@H]1CC(C)(C)C)C2 (some centres unmarked) [Compound 357]	+++ (+++ is >60%)	< 1			
Cc1cccc(C)c1-c1cc2nc(n1)NS(=O)(=O)c1cccc(n1)C(=O)N(C1CC3(CC3)C1)[C@H](CC(C)C)CO2 [Compound 164, (11R)-6-(2,6-Dimethylphenyl)-11-isobutyl-2,2-dioxo-12-spiro[2.3]hexan-5-yl-9-oxa-2λ^6-thia-3,5,12,18,19-pentazatricyclo[12.3.1.14,8]nonadeca-1(18),4(19),5,7,14,16-hexaen-13-one]					Ent. B Max Activity (%): +++ (+++ is >60%); EC50 (read-out: Ent. B EC50): < 1 µM
Cc1cccc(C)c1-c1cc2nc(n1)NS(=O)(=O)c1cccc(c1)C(=O)N([C@H]1C[C@@H](NC(C)C)C1)[C@H](CC(C)C)CO2 [Compound 367]			+++ (+++ is >60%)	< 1	
Cc1cccc(C)c1-c1cc2nc(n1)NS(=O)(=O)c1cccc(c1)C(=O)N(C1CC3(CCN(C4COC4)CC3)C1)[C@H](CC(C)C)CO2 [Compound 24, (11R)-6-(2,6-Dimethylphenyl)-11-isobutyl-12-[7-(oxetan-3-yl)-7-azaspiro[3.5]nonan-2-yl]-2,2-dioxo-9-oxa-2λ^6-thia-3,5,12,19-tetrazatricyclo[12.3.1.14,8]nonadeca-1(18),4(19),5,7,14,16-hexaen-13-one]			+++ (+++ is >60%)	< 1	
